Results reported in ChEMBL document CHEMBL4507276 (2021).

Tests used:
[1] = biological target: Sodium/potassium-transporting ATPase subunit alpha-1 (Sus scrofa) (UniProt P05024); test: ATPASE(NA/K) Cerep selectivity data (BI); details: Compound concentration 20.0 uM
[2] = biological target: Cholecystokinin receptor type A (Homo sapiens) (UniProt P32238); test: CCKA/H Cerep selectivity data (BI); details: Compound concentration 20.0 uM
[3] = biological target: Nociceptin receptor (Homo sapiens) (UniProt P41146); test: ORL1/H Cerep selectivity data (BI); details: Compound concentration 20.0 uM
Chain of Nociceptin receptor (Homo sapiens) (P41146 whole entry): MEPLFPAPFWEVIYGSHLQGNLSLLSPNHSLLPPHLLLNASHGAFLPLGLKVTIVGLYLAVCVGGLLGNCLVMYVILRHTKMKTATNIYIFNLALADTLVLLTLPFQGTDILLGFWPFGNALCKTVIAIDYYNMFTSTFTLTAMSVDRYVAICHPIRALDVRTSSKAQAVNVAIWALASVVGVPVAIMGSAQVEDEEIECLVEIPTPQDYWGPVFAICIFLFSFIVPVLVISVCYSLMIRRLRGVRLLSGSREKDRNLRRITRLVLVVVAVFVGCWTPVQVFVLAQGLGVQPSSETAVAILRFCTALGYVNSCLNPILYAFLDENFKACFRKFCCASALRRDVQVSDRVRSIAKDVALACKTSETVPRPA

[4] = biological target: Voltage-dependent N-type calcium channel subunit alpha-1B (Rattus norvegicus) (UniProt Q02294); test: CA+/N/RA Eurofins-Panlabs selectivity data (BI); details: Compound concentration 10.0 uM
[5] = biological target: Nicotinic acetylcholine receptor alpha-1/beta-1 (Homo sapiens) (UniProt P02708+P11230); test: NACH_BS_N/H Eurofins-Panlabs selectivity data (BI); assay type: protein-complex assay; details: Compound concentration 10.0 uM
[6] = biological target: Sigma non-opioid intracellular receptor 1 (Homo sapiens) (UniProt Q99720); test: SIGMA1/HU Eurofins-Panlabs selectivity data (BI); details: Compound concentration 10.0 uM
[7] = biological target: Calcium/calmodulin-dependent protein kinase type 1D (Homo sapiens) (UniProt Q8IU85); test: CAMK1D Invitrogen selectivity data (BI); details: Compound concentration 3.0 uM
Chain of Calcium/calmodulin-dependent protein kinase type 1D (Homo sapiens) (Q8IU85 whole entry, looked up): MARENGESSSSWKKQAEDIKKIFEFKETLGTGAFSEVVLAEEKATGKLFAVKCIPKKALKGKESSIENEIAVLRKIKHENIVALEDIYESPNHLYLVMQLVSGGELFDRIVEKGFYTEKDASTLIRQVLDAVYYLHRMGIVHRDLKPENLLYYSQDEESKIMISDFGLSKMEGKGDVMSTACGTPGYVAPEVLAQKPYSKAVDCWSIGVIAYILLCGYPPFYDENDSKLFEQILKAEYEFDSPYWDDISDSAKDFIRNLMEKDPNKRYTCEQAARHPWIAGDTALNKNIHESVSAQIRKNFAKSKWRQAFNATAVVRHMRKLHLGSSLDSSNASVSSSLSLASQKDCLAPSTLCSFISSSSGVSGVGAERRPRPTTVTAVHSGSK

[8] = biological target: Serine/threonine-protein kinase MRCK alpha (Homo sapiens) (UniProt Q5VT25); test: CDC42 BPA Invitrogen selectivity data (BI); details: Compound concentration 3.0 uM
Chain of Serine/threonine-protein kinase MRCK alpha (Homo sapiens) (Q5VT25 whole entry): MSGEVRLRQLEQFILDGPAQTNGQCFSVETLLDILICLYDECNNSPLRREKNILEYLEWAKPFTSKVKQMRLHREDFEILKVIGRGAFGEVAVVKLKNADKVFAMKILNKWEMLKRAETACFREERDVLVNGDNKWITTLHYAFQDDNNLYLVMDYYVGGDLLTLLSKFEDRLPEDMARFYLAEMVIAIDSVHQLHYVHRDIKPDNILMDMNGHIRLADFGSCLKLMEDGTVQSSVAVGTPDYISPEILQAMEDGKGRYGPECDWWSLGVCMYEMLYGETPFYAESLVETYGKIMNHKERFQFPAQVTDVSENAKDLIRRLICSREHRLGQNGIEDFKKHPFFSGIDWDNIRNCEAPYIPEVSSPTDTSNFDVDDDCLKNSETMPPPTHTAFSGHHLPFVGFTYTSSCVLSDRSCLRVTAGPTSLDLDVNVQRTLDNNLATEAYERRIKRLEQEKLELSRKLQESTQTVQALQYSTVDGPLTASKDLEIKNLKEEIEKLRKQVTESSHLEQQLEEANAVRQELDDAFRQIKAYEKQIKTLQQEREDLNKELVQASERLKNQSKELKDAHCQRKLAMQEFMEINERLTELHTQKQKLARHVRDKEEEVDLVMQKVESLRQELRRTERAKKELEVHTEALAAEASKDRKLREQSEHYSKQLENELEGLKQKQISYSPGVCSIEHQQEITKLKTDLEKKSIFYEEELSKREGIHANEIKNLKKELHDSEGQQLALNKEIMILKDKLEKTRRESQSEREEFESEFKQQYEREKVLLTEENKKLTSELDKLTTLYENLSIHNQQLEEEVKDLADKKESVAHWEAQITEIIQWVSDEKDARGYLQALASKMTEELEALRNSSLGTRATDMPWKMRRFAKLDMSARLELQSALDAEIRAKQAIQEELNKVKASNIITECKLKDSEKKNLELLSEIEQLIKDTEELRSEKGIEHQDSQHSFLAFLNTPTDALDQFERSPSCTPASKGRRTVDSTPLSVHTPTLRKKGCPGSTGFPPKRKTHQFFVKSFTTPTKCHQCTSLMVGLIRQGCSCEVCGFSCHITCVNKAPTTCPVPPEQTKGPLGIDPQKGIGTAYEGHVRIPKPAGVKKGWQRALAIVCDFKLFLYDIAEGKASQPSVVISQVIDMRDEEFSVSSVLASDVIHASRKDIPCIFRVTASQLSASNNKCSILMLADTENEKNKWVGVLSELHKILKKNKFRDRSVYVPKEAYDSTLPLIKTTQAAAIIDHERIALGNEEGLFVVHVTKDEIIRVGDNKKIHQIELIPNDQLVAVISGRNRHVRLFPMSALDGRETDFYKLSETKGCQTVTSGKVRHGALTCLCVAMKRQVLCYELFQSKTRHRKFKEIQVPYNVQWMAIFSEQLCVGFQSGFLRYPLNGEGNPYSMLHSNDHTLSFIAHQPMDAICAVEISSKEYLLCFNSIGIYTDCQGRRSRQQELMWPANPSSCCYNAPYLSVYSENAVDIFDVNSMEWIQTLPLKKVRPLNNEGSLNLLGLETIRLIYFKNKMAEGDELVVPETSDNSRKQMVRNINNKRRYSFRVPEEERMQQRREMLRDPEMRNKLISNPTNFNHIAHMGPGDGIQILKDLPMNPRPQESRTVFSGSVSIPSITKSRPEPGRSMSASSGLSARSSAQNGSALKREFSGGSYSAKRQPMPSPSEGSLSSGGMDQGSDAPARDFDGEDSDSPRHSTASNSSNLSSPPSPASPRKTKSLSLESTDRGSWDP

[9] = biological target: Tyrosine-protein kinase CSK (Homo sapiens) (UniProt P41240); test: CSK Invitrogen selectivity data (BI); details: Compound concentration 3.0 uM
[10] = biological target: Tyrosine-protein kinase Fyn (Homo sapiens) (UniProt P06241); test: FYN Invitrogen selectivity data (BI); details: Compound concentration 3.0 uM
Chain of Tyrosine-protein kinase Fyn (Homo sapiens) (P06241 2-537 limits assumed): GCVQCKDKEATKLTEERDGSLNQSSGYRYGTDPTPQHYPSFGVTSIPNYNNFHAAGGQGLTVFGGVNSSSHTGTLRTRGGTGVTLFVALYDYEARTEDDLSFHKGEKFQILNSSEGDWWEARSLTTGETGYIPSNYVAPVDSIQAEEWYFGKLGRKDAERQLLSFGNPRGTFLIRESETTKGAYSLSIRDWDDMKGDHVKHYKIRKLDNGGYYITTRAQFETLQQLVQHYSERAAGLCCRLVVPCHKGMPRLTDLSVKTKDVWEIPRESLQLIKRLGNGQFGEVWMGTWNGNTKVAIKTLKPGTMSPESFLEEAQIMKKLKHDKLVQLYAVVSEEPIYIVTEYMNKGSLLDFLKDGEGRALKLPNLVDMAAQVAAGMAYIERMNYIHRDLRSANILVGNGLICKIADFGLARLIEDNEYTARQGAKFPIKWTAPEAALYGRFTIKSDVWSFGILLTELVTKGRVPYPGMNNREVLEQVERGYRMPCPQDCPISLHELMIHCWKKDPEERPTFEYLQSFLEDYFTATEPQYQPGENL

[11] = biological target: T1, Interleukin-1 receptor-associated kinase 4 (Homo sapiens) (UniProt Q9NWZ3); test: IRAK4 Invitrogen selectivity data (BI); details: Compound concentration 3.0 uM
T1 sequence (whole entry): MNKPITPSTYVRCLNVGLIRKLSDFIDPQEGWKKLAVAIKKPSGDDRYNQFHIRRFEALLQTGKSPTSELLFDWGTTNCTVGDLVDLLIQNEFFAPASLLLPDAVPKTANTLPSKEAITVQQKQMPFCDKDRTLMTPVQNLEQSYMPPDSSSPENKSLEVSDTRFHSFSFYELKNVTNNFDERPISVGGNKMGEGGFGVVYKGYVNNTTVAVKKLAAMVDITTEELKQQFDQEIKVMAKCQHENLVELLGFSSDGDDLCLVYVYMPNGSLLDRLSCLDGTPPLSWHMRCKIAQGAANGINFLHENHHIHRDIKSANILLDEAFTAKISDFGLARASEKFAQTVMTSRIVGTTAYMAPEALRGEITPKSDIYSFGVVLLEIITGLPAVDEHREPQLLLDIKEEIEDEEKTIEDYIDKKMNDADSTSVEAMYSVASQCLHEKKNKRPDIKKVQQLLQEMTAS

[12] = biological target: T2, Tyrosine-protein kinase ITK/TSK (Homo sapiens) (UniProt Q08881); test: ITK Invitrogen selectivity data (BI); details: Compound concentration 3.0 uM
T2 sequence (whole entry): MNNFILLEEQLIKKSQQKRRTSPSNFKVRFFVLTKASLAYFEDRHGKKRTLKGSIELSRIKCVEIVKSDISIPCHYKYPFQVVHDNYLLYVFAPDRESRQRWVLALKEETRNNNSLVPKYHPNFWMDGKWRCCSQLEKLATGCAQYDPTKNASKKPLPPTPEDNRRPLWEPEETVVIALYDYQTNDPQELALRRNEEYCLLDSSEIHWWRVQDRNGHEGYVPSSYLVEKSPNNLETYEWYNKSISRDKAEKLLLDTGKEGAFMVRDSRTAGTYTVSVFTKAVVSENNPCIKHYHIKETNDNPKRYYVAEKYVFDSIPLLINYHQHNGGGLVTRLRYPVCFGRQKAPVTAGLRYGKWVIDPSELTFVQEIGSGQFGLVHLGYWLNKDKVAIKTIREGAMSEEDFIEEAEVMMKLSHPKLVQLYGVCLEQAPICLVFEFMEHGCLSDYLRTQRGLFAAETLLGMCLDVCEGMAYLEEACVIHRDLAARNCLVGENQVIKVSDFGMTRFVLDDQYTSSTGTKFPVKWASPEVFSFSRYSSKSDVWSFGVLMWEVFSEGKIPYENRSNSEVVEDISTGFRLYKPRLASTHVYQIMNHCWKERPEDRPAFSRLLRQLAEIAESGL

[13] = biological target: T3, Dual specificity mitogen-activated protein kinase kinase 3 (Homo sapiens) (UniProt P46734); test: MAP2K3 Invitrogen selectivity data (BI); details: Compound concentration 3.0 uM
T3 sequence (whole entry): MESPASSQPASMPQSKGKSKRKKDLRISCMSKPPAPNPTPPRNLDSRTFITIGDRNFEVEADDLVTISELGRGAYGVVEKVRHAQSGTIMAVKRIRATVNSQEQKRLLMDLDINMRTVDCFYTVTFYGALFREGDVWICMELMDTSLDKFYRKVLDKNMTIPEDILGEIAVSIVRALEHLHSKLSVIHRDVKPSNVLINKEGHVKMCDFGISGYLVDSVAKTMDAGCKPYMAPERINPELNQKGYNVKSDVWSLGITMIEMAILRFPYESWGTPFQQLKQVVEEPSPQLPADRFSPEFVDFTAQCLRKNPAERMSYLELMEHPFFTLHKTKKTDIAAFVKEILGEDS

[14] = tested on: Hepatocyte growth factor receptor (Homo sapiens), P08581 [M1250T]; test: MET M1250T Invitrogen selectivity data (BI); details: Compound concentration 3.0 uM
[15] = biological target: Serine/threonine-protein kinase 26 (Homo sapiens) (UniProt Q9P289); test: MST4 Invitrogen selectivity data (BI); details: Compound concentration 3.0 uM
Chain of Serine/threonine-protein kinase 26 (Homo sapiens) (Q9P289 2-416 limits assumed): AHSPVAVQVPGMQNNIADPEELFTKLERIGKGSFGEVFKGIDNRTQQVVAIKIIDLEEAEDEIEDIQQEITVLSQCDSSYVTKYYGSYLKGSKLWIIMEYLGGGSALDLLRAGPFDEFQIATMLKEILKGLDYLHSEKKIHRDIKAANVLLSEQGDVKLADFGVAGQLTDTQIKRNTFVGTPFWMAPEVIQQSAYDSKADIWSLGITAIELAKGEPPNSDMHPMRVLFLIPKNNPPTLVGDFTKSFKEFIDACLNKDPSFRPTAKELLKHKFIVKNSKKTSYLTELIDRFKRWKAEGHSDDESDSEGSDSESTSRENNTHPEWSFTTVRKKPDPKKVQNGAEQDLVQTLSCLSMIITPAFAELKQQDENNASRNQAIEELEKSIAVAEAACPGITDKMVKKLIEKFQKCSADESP

[16] = biological target: Serine/threonine-protein kinase PLK3 (Homo sapiens) (UniProt Q9H4B4); test: PLK3 Invitrogen selectivity data (BI); details: Compound concentration 3.0 uM
Chain of Serine/threonine-protein kinase PLK3 (Homo sapiens) (Q9H4B4 whole entry, looked up): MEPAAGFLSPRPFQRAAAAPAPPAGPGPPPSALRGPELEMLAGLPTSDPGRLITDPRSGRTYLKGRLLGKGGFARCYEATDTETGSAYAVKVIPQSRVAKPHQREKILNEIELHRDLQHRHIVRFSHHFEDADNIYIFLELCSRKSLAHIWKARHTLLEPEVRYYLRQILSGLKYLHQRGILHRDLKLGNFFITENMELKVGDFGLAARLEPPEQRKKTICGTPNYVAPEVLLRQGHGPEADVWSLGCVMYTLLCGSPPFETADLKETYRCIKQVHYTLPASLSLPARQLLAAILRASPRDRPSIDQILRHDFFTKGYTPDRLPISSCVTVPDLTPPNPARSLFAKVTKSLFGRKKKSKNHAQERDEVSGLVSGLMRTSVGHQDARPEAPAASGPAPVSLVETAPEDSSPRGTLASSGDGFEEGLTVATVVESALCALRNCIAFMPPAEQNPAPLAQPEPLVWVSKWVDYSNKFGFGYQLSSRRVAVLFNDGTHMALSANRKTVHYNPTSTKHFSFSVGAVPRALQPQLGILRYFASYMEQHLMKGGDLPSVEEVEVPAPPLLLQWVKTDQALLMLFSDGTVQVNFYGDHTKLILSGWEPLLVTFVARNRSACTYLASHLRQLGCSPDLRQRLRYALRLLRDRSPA

[17] = biological target: T4, Protein kinase C iota type (Homo sapiens) (UniProt P41743); test: PRKCI Invitrogen selectivity data (BI); details: Compound concentration 3.0 uM
T4 sequence (whole entry): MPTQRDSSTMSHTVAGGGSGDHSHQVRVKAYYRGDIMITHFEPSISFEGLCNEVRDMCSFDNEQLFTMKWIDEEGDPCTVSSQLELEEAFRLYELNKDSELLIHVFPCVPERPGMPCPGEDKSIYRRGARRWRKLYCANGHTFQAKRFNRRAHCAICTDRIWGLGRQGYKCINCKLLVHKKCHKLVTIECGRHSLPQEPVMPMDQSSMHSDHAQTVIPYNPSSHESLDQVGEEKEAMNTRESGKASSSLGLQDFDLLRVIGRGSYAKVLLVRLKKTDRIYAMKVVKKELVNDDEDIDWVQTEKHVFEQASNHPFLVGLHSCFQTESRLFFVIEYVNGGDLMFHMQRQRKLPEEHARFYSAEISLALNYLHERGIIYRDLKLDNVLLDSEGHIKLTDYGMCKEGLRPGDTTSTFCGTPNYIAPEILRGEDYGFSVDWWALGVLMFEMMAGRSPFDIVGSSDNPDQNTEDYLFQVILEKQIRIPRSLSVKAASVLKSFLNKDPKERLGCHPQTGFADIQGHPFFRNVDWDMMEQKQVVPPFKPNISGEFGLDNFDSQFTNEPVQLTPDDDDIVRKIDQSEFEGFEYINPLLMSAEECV

[18] = biological target: Proto-oncogene tyrosine-protein kinase Src (Homo sapiens) (UniProt P12931); test: SRC N1 Invitrogen selectivity data (BI); details: Compound concentration 3.0 uM
Chain of Proto-oncogene tyrosine-protein kinase Src (Homo sapiens) (P12931 2-536 limits assumed): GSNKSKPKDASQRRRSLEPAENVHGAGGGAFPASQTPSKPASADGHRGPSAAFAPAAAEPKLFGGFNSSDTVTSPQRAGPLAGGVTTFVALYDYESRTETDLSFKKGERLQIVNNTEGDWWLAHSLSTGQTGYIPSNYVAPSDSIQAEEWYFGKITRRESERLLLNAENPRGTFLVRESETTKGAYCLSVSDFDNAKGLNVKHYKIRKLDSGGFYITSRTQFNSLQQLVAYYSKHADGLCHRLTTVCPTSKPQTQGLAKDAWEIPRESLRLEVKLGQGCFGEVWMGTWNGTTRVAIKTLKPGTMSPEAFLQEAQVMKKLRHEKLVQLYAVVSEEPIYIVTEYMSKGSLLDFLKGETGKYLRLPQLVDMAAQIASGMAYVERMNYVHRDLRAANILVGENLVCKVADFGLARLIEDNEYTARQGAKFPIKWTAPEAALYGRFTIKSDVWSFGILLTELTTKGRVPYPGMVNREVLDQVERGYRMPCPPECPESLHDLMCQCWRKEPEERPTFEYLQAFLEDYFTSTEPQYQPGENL

Measured: residual activity

Chain of Cholecystokinin receptor type A (Homo sapiens) (P32238 whole entry): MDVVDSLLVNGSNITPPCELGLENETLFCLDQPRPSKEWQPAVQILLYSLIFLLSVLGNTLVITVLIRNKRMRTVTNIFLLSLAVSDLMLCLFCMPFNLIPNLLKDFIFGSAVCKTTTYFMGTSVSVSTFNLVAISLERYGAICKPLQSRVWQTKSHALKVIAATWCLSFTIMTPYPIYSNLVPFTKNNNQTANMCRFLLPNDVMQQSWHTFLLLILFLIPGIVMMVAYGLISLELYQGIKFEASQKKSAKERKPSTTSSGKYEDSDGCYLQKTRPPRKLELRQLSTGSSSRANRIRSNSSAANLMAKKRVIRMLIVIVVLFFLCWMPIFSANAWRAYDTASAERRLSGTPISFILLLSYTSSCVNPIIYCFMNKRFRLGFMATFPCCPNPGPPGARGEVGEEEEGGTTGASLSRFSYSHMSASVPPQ

CN(C)C(=O)Cn1cc(-c2nc([C@@](C)(c3ccc(-c4cnc(N)nc4)cc3)C3CC3)no2)cn1 [BI 665915]
inactive: [1] 99% | [2] 113% | [3] 91% | [4] 95% | [5] 99% | [6] 108% | [7] 96% | [8] 102% | [9] 95% | [10] 96.5% | [11] 102% | [12] 94% | [13] 101% | [14] 105% | [15] 99% | [16] 98% | [17] 97% | [18] 85%
